One assay has as its system Cox B3. As to the kind of experiment: Anti-Coxsackie B3 CPE inhibitory assay in Vero cells. The settings on record: Vero, Cox B3, 158TCID50; CPE, Reed and Muench. It counts as cell-based, Coxsackie viruses (Cox B3 Nancy strain).
The IC50 is the concentration that inhibits the measured activity by half. Higher therefore signals weaker potency. The compound `COC(=O)c1cc2c(OC3CC3)cc(N)cc2[nH]1` [Compound 7f, Methyl 6-amino-4-cyclopropoxy-1H-indole-2-carboxylate] returned an IC50 of 49.4 µM.

With `COC(=O)c1cc2c(OCC(C)C)cc(NC(C)=O)cc2[nH]1` [Compound 8e, Methyl 6-acetamido-4-isobutoxy-1H-indole-2-carboxylate], the half-inhibitory concentration (IC50) was more than 24.4 µM.

With `COC(=O)c1cc2c(OCC(C)C)cc(N)cc2[nH]1` [Compound 8f, Methyl 6-amino-4-isobutoxy-1H-indole-2-carboxylate], half-maximal inhibition (IC50) required 7.18 µM.

Regarding `CCOc1cc(N)cc2[nH]c(C(=O)OC)cc12` [Compound 9f, Methyl 6-amino-4-ethoxy-1H-indole-2-carboxylate], the concentration for half-maximal inhibition (IC50) was more than 31.7 µM.

As for `COC(=O)c1cc2c(OC(C)C)cc(N)cc2[nH]1` [Compound 10f, Methyl 6-amino-4-isopropoxy-1H-indole-2-carboxylate], the half-maximal inhibitory concentration (IC50) is more than 89.6 µM.

In turn, `COC(=O)c1cc2c(OC)cccc2[nH]1` [Compound 11e, Methyl 4-methoxy-1H-indole-2-carboxylate] displayed an IC50 of 108 µM.

For `COC(=O)c1cc2c(OCc3ccccc3)cc(OC)cc2[nH]1` [Compound 12e, Methyl 4-(benzyloxy)-6-methoxy-1H-indole-2-carboxylate], the IC50 was more than 7.94 µM.

`COC(=O)c1cc2c(OCc3ccccc3)cccc2[nH]1` [Compound 13e, Methyl 4-(benzyloxy)-1H-indole-2-carboxylate] displayed a concentration for half-maximal inhibition (IC50) of more than 8.79 µM.

On to `COC(=O)c1cc2c(OC)ccc(N)c2[nH]1` [Compound 16f, Methyl 7-amino-4-methoxy-1H-indole-2-carboxylate], for which the IC50 is more than 33.7 µM.

`CCOc1ccc(N)c2[nH]c(C(=O)OC)cc12` [Compound 17f, Methyl 7-amino-4-ethoxy-1H-indole-2-carboxylate] returned a half-inhibitory concentration (IC50) of 10.6 µM.

Compound `NC(=O)c1ncn([C@@H]2O[C@H](CO)[C@@H](O)[C@H]2O)n1` [RBV, ribavirin, reference compound] yielded an IC50 of 1060 µM.

In another assay the test system is HSV-1. The experiment in a line: Anti-HSV-1 CPE assay in Vero cells. It counts as cell-based, HSV-1 virus.
Settings: not given
In the case of `CCOc1ccc(N)c2[nH]c(C(=O)OC)cc12` [Compound 17f, Methyl 7-amino-4-ethoxy-1H-indole-2-carboxylate], the “activity towards HSV-1 (in words)” value was “showed activity”.

Still in this assay, the particulars now being: Human alphaherpesvirus 1, Vero.
For the compound `Nc1nc2c(ncn2COCCO)c(=O)[nH]1` [ACV, Acyclovir, reference compound], the 50% inhibitory concentration (IC50) stood at 1.82 µM.

The compound `COC(=O)c1cc2c(OC3CC3)cc(N)cc2[nH]1` [Compound 7f, Methyl 6-amino-4-cyclopropoxy-1H-indole-2-carboxylate] came in with an IC50 of more than 85.5 µM.

Compound `COC(=O)c1cc2c(OCC(C)C)cc(NC(C)=O)cc2[nH]1` [Compound 8e, Methyl 6-acetamido-4-isobutoxy-1H-indole-2-carboxylate] yielded a concentration for half-maximal inhibition (IC50) of more than 24.4 µM.

As to `COC(=O)c1cc2c(OCC(C)C)cc(N)cc2[nH]1` [Compound 8f, Methyl 6-amino-4-isobutoxy-1H-indole-2-carboxylate], the concentration for half-maximal inhibition (IC50) was more than 28.3 µM.

As to `CCOc1cc(N)cc2[nH]c(C(=O)OC)cc12` [Compound 9f, Methyl 6-amino-4-ethoxy-1H-indole-2-carboxylate], the IC50 is more than 31.7 µM.

In turn, `COC(=O)c1cc2c(OC(C)C)cc(N)cc2[nH]1` [Compound 10f, Methyl 6-amino-4-isopropoxy-1H-indole-2-carboxylate] returned a 50% inhibitory concentration (IC50) of more than 89.6 µM.

`COC(=O)c1cc2c(OC)cccc2[nH]1` [Compound 11e, Methyl 4-methoxy-1H-indole-2-carboxylate] displayed an IC50 of more than 108 µM.

As for `COC(=O)c1cc2c(OCc3ccccc3)cc(OC)cc2[nH]1` [Compound 12e, Methyl 4-(benzyloxy)-6-methoxy-1H-indole-2-carboxylate], the IC50 is more than 7.94 µM.

The compound `COC(=O)c1cc2c(OCc3ccccc3)cccc2[nH]1` [Compound 13e, Methyl 4-(benzyloxy)-1H-indole-2-carboxylate] had an IC50 of more than 8.79 µM.

As to `COC(=O)c1cc2c(OC)ccc(N)c2[nH]1` [Compound 16f, Methyl 7-amino-4-methoxy-1H-indole-2-carboxylate], the half-maximal inhibitory concentration (IC50) was more than 33.7 µM.

Turning to `CCOc1ccc(N)c2[nH]c(C(=O)OC)cc12` [Compound 17f, Methyl 7-amino-4-ethoxy-1H-indole-2-carboxylate], the midpoint of inhibition, the IC50, lay at 10.6 µM. This counts as double-digit micromolar.

For the next assay, the system named is A/FM/1/47. The experiment in a line: Anti-influenza A CPE inhibitory assay in MDCK cells. It counts as cell-based, influenza A/FM/1/47(H1N1). The settings on record: Influenza A virus, MDCK, […]; CPE, Reed and Muench.
Take `COC(=O)c1cc2c(OC3CC3)cc(N)cc2[nH]1` [Compound 7f, Methyl 6-amino-4-cyclopropoxy-1H-indole-2-carboxylate]: the IC50 is more than 85.5 µM.

Compound `COC(=O)c1cc2c(OCC(C)C)cc(NC(C)=O)cc2[nH]1` [Compound 8e, Methyl 6-acetamido-4-isobutoxy-1H-indole-2-carboxylate] had an IC50 of 8.13 µM.

Consider `COC(=O)c1cc2c(OCC(C)C)cc(N)cc2[nH]1` [Compound 8f, Methyl 6-amino-4-isobutoxy-1H-indole-2-carboxylate], for which the IC50 was determined as 9.43 µM.

Take `CCOc1cc(N)cc2[nH]c(C(=O)OC)cc12` [Compound 9f, Methyl 6-amino-4-ethoxy-1H-indole-2-carboxylate]: the IC50 was found to be 18.3 µM. Against the preceding compound, the IC50 is about 1.9-fold higher.

With `COC(=O)c1cc2c(OC(C)C)cc(N)cc2[nH]1` [Compound 10f, Methyl 6-amino-4-isopropoxy-1H-indole-2-carboxylate], the IC50 was less than 52 µM.

For the compound `COC(=O)c1cc2c(OC)cccc2[nH]1` [Compound 11e, Methyl 4-methoxy-1H-indole-2-carboxylate], the IC50 was found to be 62.6 µM. This counts as double-digit micromolar.

Take `COC(=O)c1cc2c(OCc3ccccc3)cccc2[nH]1` [Compound 13e, Methyl 4-(benzyloxy)-1H-indole-2-carboxylate]: the 50% inhibitory concentration (IC50) is less than 52 µM.

Take `COC(=O)c1cc2c(OC)ccc(N)c2[nH]1` [Compound 16f, Methyl 7-amino-4-methoxy-1H-indole-2-carboxylate]: the half-maximal inhibitory concentration (IC50) was more than 3.73 µM.

`CCOc1ccc(N)c2[nH]c(C(=O)OC)cc12` [Compound 17f, Methyl 7-amino-4-ethoxy-1H-indole-2-carboxylate] registered a half-maximal inhibitory concentration (IC50) of more than 10.6 µM.

Turning to `CCOC(=O)C1=C[C@@H](OC(CC)CC)[C@H](NC(C)=O)[C@@H](N)C1` [Oseltamivir, oseltamivir, reference compound], the 50% inhibitory concentration (IC50) worked out at 6.43 µM.

As to `NC(=O)c1ncn([C@@H]2O[C@H](CO)[C@@H](O)[C@H]2O)n1` [RBV, ribavirin, reference compound], the half-maximal inhibitory concentration (IC50) is 2.58 µM. Compared with the last compound, the IC50 is about 2.5-fold lower.

Staying with this assay, now noted: […]; CPE, Reed and Muench.
For the compound `COC(=O)c1cc2c(OC(C)C)cc(N)cc2[nH]1` [Compound 10f, Methyl 6-amino-4-isopropoxy-1H-indole-2-carboxylate], the 50% inhibitory concentration (IC50) was 51.7 µM.

In the case of `COC(=O)c1cc2c(OCc3ccccc3)cccc2[nH]1` [Compound 13e, Methyl 4-(benzyloxy)-1H-indole-2-carboxylate], the IC50 turned out to be 26.4 µM.

In another assay the test system is B/Jifang/13/97. The experiment in a line: Anti-influenza B CPE assay. It counts as cell-based. Conditions: Influenza B virus.
The compound `COC(=O)c1cc2c(OCC(C)C)cc(NC(C)=O)cc2[nH]1` [Compound 8e, Methyl 6-acetamido-4-isobutoxy-1H-indole-2-carboxylate] came in with a half-maximal inhibitory concentration (IC50) of more than 8.13 µM.

In turn, `COC(=O)c1cc2c(OCC(C)C)cc(N)cc2[nH]1` [Compound 8f, Methyl 6-amino-4-isobutoxy-1H-indole-2-carboxylate] registered an IC50 of more than 9.43 µM.

Take `CCOc1cc(N)cc2[nH]c(C(=O)OC)cc12` [Compound 9f, Methyl 6-amino-4-ethoxy-1H-indole-2-carboxylate]: the IC50 is more than 31.7 µM.

For the compound `COC(=O)c1cc2c(OC(C)C)cc(N)cc2[nH]1` [Compound 10f, Methyl 6-amino-4-isopropoxy-1H-indole-2-carboxylate], the IC50 is more than 89.6 µM.

Take `COC(=O)c1cc2c(OC)cccc2[nH]1` [Compound 11e, Methyl 4-methoxy-1H-indole-2-carboxylate]: the IC50 was more than 108 µM.

As to `COC(=O)c1cc2c(OCc3ccccc3)cc(OC)cc2[nH]1` [Compound 12e, Methyl 4-(benzyloxy)-6-methoxy-1H-indole-2-carboxylate], the 50% inhibitory concentration (IC50) was more than 23.8 µM.

Consider `COC(=O)c1cc2c(OCc3ccccc3)cccc2[nH]1` [Compound 13e, Methyl 4-(benzyloxy)-1H-indole-2-carboxylate], for which the 50% inhibitory concentration (IC50) is more than 26.4 µM.

`CCOC(=O)C1=C[C@@H](OC(CC)CC)[C@H](NC(C)=O)[C@@H](N)C1` [Oseltamivir, oseltamivir, reference compound] displayed a concentration for half-maximal inhibition (IC50) of 115 µM.

Compound `NC(=O)c1ncn([C@@H]2O[C@H](CO)[C@@H](O)[C@H]2O)n1` [RBV, ribavirin, reference compound] showed an IC50 of 10.1 µM.

The values are drawn from PMC4629079 (Acta Pharmaceutica Sinica. B, 2014).
